For one series, the target named is SUMO-activating enzyme (Homo sapiens, UniProt Q9UBT2). In words: SUMOylation inhibitor hit validation, confirmation, SUMOylation inhibitor project, biochemical, AlphaScreen (AID 2018). It counts as functional. Background: Bead proximity is the source of the signal in Alpha formats.
For a further series, the target named is Cytochrome P450 2D6 (Homo sapiens, UniProt P10635).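 Note: CYP2D6 member of a cytochrome P450 panel assay.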
Series [1] has as its target T1, DNA repair and recombination protein RAD54-like (Homo sapiens, UniProt Q92698).
T1 sequence (Q92698 whole entry): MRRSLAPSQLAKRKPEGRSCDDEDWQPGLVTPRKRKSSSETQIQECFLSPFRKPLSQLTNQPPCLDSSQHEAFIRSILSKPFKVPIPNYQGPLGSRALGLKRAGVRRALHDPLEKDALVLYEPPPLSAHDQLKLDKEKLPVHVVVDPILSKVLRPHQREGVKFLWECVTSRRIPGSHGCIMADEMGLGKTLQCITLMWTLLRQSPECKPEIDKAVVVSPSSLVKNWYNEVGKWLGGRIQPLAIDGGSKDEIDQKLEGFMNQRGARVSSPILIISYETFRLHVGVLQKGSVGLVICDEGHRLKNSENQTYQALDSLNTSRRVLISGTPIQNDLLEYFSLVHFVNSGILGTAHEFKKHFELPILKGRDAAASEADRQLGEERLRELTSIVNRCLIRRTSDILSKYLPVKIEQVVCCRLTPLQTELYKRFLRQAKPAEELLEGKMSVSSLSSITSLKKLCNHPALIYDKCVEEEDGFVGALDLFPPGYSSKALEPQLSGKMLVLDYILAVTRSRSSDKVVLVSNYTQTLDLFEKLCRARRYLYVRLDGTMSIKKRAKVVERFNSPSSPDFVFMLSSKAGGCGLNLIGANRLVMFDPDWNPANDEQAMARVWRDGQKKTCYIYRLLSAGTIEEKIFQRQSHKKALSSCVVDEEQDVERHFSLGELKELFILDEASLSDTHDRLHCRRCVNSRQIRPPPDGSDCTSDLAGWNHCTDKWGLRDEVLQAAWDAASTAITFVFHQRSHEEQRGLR
In words: inhibitors of human RAD54 branch migration, confirmation, biochemical, fluorescence, cherry-picked samples, dose series (AID 651657). It counts as functional.

The nature of series [2]: Luminescence Cell-Based Dose Response HTS to Identify Activators of Luciferase Translation or Activity in H4 […] Cells. [Related pubchem assays: 1829 (Project Summary), 1814 (Primary HTS)]. It counts as functional.
Series [3] addresses Dual specificity tyrosine-phosphorylation-regulated kinase 1A (Rattus norvegicus, UniProt Q63470). It counts as biochemical, Homo sapiens.
In the next series the test system is H4. In words: Luminescence Cell-Based Dose Response HTS to Identify Activators of 5'UTR Stem-Loop Driven Prion Protein mRNA Translation in H4 Neuroglioblastoma Cells. [Related pubchem assays: 1829 (Project Summary), 1814 (Primary HTS)]. It counts as functional. The settings on record: Homo sapiens.
Series [4] in a line: Luminescence Cell-Based Dose Confirmation HTS to Identify Activators of 5'UTR Stem-Loop Driven Alpha-Synuclein mRNA Translation in H4 Neuroglioblastoma Cells. [Related pubchem assays: 1829 (Project Summary), 1814 (Primary HTS)]. It counts as functional.
Another series has as its target Cytochrome P450 2C9 (Homo sapiens, UniProt P11712).
A further series has as its target Cytochrome P450 2C19 (Homo sapiens, UniProt P33261). In words: Cytochrome panel assay with activity outcomes. Panel member name: p450-cyp2c19 Compounds with AC50 equal or less than 10 uM are considered active. It counts as functional.
The test system of the next series is Vero. In words: cells. It counts as functional. The settings on record: Chlorocebus sabaeus.
For the next series, the target named is T2, Cytochrome P450 1A2 (Homo sapiens, UniProt P05177).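 Note: PubChem cytochrome P450 panel assay, CYP1A2 panel member.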
T2 sequence (P05177 whole entry): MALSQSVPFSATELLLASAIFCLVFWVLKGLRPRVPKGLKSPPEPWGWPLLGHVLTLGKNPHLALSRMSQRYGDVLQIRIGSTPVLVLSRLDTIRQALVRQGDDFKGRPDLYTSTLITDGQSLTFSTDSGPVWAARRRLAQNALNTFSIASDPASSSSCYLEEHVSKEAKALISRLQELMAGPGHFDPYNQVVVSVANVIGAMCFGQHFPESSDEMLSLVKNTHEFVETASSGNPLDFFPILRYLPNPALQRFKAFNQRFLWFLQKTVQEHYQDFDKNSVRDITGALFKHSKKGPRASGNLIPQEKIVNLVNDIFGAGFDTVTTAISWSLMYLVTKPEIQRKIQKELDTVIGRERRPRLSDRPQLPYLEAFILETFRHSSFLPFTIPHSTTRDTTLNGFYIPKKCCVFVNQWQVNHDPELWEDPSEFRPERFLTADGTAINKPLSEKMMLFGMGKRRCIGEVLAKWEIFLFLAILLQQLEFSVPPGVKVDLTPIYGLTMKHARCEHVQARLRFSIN

A short description of series [5]: cytotoxicity in HEK-293T cells, dose response, cytotoxicity control for TCR NF-kB inhibitor project, luminescence, T-cell screen hits (AID 489026).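 Note: cells exposed to compound about 14 hours before the viability readout.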 It counts as functional, cell-based.
A short description of series [6]: cytotoxicity toward DRD oncogenic fibroblasts, dose response, cell-based, non-viral oncogenic, luminescence (AID 1934). It counts as functional. The conditions noted are these: Homo sapiens.
Series [7] deals with BJ. In words: cells. It counts as functional, cell-based. The settings on record: Homo sapiens.
Series [8] deals with BJ. In words: cytotoxicity toward BJ-TERT fibroblasts, dose response, cell-based, RAS-independent, luminescence (AID 1933). It counts as functional. The conditions noted are these: Homo sapiens.
The subject of the next series is Streptococcus. In words: Group A Streptococcus viability loss, dose response, counter-screen for streptokinase expression inhibitor project, luminescence, BacTiterGlo (AID 1915).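 Note: potency for reduction of bacterial viability or growth.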 It counts as functional, organism-based. Background: The purpose of a counterscreen is to sort out artefacts and off-target activity.
A further series concerns the target Nonstructural protein 1 (Influenza A virus, UniProt Q194T2). It counts as functional, Influenza A virus (A/California/07/2009(H1N1)).
The test system of series [9] is Streptococcus sp. 'group A'. In words: growth inhibition of control SK(-) GAS strain, dose response, counter-screen for streptokinase expression inhibitor project, luminescence, kanamycin, BacTiterGlo, confirmation (AID 1900). It counts as functional, organism-based.
The target in series [10] is T3, Replicative DNA helicase DnaB (Mycobacterium tuberculosis, UniProt P9WMR3).
T3 sequence (P9WMR3 whole entry): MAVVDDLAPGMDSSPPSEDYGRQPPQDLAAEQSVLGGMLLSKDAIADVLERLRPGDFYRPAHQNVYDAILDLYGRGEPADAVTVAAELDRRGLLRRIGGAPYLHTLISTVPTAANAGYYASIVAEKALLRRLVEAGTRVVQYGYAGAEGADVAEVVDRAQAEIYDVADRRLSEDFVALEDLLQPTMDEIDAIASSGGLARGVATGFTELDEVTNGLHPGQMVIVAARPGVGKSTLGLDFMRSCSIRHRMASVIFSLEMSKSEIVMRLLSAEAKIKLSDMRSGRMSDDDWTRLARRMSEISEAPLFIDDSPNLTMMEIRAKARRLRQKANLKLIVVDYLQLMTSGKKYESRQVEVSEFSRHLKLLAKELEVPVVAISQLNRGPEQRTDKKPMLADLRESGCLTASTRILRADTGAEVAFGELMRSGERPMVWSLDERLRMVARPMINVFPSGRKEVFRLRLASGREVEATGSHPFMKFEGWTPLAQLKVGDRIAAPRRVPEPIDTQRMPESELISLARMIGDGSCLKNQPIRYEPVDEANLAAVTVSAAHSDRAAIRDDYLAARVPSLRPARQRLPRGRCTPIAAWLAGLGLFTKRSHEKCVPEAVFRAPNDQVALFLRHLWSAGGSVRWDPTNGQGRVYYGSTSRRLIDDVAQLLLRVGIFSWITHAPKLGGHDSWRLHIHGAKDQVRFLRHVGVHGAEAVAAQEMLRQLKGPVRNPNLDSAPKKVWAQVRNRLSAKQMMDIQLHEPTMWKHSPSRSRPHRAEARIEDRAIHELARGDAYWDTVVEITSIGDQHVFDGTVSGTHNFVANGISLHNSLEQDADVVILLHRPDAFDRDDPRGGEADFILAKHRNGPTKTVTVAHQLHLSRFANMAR
In words: DnaB intein splicing inhibitors, dose response, biochemical, cell-free fluorescence (AID 449749). It counts as functional.

A further series deals with T4, Protein RecA (Mycobacterium tuberculosis, UniProt P9WHJ3).
T4 sequence (P9WHJ3 whole entry): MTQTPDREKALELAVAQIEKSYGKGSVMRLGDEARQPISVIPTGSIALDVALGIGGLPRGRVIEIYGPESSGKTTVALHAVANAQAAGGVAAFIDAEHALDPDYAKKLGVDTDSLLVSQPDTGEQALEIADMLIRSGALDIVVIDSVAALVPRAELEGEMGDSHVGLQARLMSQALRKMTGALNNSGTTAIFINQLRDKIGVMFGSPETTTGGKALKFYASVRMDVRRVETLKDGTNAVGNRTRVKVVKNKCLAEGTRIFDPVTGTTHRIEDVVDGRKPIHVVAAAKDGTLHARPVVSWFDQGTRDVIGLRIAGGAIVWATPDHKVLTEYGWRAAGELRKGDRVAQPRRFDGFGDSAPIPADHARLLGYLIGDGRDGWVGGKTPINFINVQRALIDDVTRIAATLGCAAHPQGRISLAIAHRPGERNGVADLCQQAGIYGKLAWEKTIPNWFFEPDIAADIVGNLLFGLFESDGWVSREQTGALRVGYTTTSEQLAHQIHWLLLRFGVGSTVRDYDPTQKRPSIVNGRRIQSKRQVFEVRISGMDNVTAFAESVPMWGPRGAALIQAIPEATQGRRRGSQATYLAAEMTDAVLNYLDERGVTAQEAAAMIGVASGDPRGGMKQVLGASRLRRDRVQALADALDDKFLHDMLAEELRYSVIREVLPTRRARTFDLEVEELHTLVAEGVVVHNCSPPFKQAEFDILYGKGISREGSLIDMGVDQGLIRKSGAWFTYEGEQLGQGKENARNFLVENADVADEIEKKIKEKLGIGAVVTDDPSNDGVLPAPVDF
In words: Fluorescence Cell-Free Homogeneous Dose Retest to Identify Inhibitors of RecA-Intein Splicing Activity. [Related pubchem assays (depositor defined):AID2097, AID2223, AID489010, AID492950]. It counts as functional.

The source made the active and inactive calls. Some results are limits rather than exact numbers.

Chain of Cytochrome P450 2C19 (P33261 whole entry): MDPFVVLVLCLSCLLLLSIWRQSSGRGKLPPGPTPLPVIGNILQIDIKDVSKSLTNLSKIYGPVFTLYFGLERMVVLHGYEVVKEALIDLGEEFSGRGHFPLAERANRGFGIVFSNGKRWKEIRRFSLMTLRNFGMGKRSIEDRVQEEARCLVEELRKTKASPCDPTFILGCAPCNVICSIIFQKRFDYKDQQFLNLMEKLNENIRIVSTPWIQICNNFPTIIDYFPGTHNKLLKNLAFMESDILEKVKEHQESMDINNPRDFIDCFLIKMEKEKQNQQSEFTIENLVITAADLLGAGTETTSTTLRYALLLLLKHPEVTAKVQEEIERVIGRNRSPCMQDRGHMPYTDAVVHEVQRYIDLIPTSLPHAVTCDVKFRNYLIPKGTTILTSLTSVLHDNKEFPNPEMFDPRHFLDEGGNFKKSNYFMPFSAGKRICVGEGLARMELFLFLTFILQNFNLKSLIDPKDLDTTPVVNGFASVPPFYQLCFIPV
Chain of SUMO-activating enzyme (Q9UBE0 whole entry): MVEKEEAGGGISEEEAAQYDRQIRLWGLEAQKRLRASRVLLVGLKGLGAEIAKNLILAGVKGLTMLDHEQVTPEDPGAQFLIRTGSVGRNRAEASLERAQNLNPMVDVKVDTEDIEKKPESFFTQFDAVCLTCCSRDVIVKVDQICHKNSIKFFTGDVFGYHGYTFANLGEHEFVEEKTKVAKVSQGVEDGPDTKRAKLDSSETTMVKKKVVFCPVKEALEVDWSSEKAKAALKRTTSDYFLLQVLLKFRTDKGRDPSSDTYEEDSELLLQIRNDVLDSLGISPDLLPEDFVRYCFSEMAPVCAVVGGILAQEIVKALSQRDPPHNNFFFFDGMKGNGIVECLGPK
Chain of SUMO-activating enzyme (Q9UBT2 whole entry): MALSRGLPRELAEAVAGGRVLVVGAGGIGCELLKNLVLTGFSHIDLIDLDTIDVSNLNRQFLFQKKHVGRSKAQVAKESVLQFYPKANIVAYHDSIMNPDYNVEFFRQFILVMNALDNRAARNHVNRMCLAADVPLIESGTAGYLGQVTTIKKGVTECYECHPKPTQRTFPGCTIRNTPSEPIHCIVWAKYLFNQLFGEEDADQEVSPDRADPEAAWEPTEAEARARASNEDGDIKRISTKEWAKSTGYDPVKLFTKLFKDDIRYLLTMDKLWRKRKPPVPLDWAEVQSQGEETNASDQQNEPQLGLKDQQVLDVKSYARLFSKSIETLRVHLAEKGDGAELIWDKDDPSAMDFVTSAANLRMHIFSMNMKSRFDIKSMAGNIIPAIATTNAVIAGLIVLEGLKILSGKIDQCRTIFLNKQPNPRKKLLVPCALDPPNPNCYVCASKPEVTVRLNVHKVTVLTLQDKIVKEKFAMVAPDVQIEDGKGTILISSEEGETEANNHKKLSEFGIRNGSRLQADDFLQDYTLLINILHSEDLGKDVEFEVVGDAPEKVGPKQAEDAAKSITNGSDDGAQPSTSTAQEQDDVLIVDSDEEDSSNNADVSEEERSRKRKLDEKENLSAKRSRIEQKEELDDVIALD
Chain of Cytochrome P450 2D6 (P10635 whole entry): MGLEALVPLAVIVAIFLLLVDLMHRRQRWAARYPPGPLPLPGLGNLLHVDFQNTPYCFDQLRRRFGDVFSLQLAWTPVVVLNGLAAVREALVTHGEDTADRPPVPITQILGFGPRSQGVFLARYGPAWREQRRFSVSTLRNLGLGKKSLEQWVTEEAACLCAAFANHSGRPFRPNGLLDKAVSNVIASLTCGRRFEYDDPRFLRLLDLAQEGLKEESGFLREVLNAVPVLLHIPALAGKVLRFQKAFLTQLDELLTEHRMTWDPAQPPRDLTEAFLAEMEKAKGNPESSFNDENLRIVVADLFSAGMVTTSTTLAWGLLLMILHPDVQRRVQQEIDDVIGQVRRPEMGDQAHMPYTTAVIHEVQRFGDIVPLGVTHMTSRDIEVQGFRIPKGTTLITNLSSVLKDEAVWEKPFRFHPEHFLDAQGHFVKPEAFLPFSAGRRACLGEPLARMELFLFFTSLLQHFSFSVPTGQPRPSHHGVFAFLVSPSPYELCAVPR
Chain of Cytochrome P450 2C9 (P11712 whole entry): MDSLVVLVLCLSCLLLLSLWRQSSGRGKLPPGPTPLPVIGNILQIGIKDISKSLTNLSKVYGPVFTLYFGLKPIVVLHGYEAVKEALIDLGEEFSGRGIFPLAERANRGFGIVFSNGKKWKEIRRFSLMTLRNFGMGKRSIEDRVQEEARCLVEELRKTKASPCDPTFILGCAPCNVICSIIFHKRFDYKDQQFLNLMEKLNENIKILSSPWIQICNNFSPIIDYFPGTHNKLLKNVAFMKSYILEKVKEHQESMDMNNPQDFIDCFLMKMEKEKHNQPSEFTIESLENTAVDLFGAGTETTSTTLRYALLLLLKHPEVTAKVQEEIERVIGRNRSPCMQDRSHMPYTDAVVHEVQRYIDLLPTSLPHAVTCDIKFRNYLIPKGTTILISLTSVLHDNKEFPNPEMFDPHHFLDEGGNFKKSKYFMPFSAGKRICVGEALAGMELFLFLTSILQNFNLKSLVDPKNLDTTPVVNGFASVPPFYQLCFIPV
Chain of Nonstructural protein 1 (Q194T2 whole entry): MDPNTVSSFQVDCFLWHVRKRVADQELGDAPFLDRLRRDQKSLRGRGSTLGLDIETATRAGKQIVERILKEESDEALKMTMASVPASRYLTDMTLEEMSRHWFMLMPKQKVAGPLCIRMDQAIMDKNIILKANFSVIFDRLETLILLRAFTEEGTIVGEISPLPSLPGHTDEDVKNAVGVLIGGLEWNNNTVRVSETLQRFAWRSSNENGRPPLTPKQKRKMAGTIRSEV

Take `Cc1ccc(C(=O)Nc2sc3c(c2C(=O)NCc2ccco2)CCCC3)cc1`: on SUMO-activating enzyme, the IC50 (in general, the point on the concentration scale where inhibition reaches its midpoint) is 29.9 µM (active).

For `O=C(O)c1cc2ccccc2c(S(=O)(=O)O)c1O`, at Cytochrome P450 2D6, the AC50 – broadly, the midpoint of the concentration-response curve, whichever way the signal moves – is listed as “inconclusive”.

`CCNCCNC(=O)c1c(O)c2cccc3c2n(c1=O)CCC3`: the AC50 in series [1] was 86.3 µM (active).

As for `CCc1ccc2nc(NC(=O)C3CSC4(C)CCC(=O)N34)sc2c1` (stereo not drawn), the EC50 (usually the concentration at which the effect is half-maximal) in series [2] was 19.6 µM (active); with H4 it was 6.99 µM (active); in [4], > 120 µM (not active). In [3], the concentration at half-maximal activity (AC50) is 7.62 µM (active).

On to `CC(C)(C)c1ccc(OC(=O)Cn2c(C(F)(F)F)nc3ccccc32)cc1`, for which the AC50 was 0.891 µM (inconclusive) on Cytochrome P450 2C9, “inconclusive” at Cytochrome P450 2C19 and “inconclusive” at Cytochrome P450 2D6.

Turning to `O=C(Nc1ccc2ccccc2n1)c1ccccc1`, in series [3], the concentration at half-maximal activity (AC50) was 77.5 µM (active).

`CC1CCC(C(C)C)C2=C1C(C#N)(C#N)C(C#N)(C#N)C(c1ccccc1)N2` (stereo not drawn): the AC50 in [3] was 5.69 µM (active). Further, the CC50 (as a rule, the concentration at which the toxic effect on the cells reaches its halfway point) in the series with Vero was 16.7 µM (active).

For the molecule `O=C(N/N=C\c1cn[nH]c1-c1ccc(Cl)cc1)c1cccs1`, the IC50 at SUMO-activating enzyme was > 100 µM (inactive).

For the molecule `CN(C)c1ncnc2c1ncn2CCn1cnc2c(N(C)C)ncnc21`, the AC50 on Cytochrome P450 1A2 is 6.31 µM (inconclusive); on Cytochrome P450 2D6, “inconclusive”.

As for `CN(C)CCNC(=O)c1cc2c(=O)n(C)c3ccccc3c2n1C`, in [1], the AC50 is 16.2 µM (active).

Turning to `COc1cc(-c2noc(C)c2-c2ccc(N(C)C)nc2)cc(OC)c1OC`, the IC50 in [5] is > 80 µM (inactive). In addition, the concentration giving a half-maximal response (EC50) was 4.06 µM (inconclusive) in series [6], 15.7 µM (inconclusive) in the series with BJ [7] and 0.174 µM (active) in the series on BJ [8].

Consider `COc1cc2cc(c1Cl)N(C)C(=O)C[C@H](OC(=O)C(C)C)[C@]1(C)O[C@@H]1[C@@H](C)[C@H]1C[C@](O)(NC(=O)O1)[C@@H](OC)/C=C\C=C(\C)C2`, for which the AC50 result at Cytochrome P450 2C19 and at Cytochrome P450 2D6 was “inconclusive” in each case.

With `Cc1nn(-c2ccccc2)c2sc(C(=O)NNC(=O)COc3ccccc3)cc12`, the IC50 at SUMO-activating enzyme is 33.6 µM (active).

With `O=C(NC(=S)NNC(=O)c1ccccc1O)c1ccco1`, the concentration giving a half-maximal response (EC50) in the series on Streptococcus is 7.67 µM (active); in [9], 3.27 µM (active); at Protein RecA, 114 µM (inconclusive). Further, the IC50 on Nonstructural protein 1 was 8.7 µM (active). Moreover, the AC50 in [10] was 95.2 µM (active).

Regarding `COc1ccc(/C=N/N(C(C)=O)c2nc(-c3ccc(C)cc3)cs2)cc1`, the AC50 on Cytochrome P450 2C9 was 3.16 µM (inconclusive); at Cytochrome P450 2C19 (read-out: AC50) it was 0.447 µM (inconclusive); on Cytochrome P450 2D6, “inconclusive”.

`O=c1c(O[C@@H]2O[C@H](CO)C(O)C2O)c(-c2ccc(O)c(O)c2)oc2cc(O)cc(O)c12` (stereo partly drawn): in series [3], the concentration at half-maximal activity (AC50) is 18 µM (active).

These data come from ChEMBL document CHEMBL1201862, “PubChem BioAssay data set” (2004).
